# Laboratory results as given in patent US9775890B2, “Factor Xa inhibitor used with liver-derived progenitor cells” (UNIVERSITÉ CATHOLIQUE DE LOUVAIN, priority 2012, dated 2017).
# Counter-ions that a name gives are not always drawn. Like-named read-outs stand apart in the source and are kept apart here.
# What was measured:
# cells with PCA = assay: Analogous thromboelastometry experiments with different direct factor Xa inhibitors plus direct thrombin inhibitor; format: cell-based; settings: present tense
# Method: (§1) Measurements were performed on a ROTEM® delta analyser (Pentapharm, Munich, Germany). ROTEM® assesses the kinetics and quality of clot formation and clot lysis in real-time. The clotting time (CT) is defined as the period of time from the start of the analysis until the start of clot formation, normally until the 2 mm amplitude is reached. The clot formation time is defined as the period until the 20 mm amplitude is reached. The alpha angle is defined as the angle between the centre line and a tangent to the curve through the 2 mm amplitude point, which is the end of the CT. The maximum amplitude of the curve is defined as the maximum clot firmness. The maximum of lysis represents the maximum fibrinolysis detected during the measurement. We focused on CT.
# (§2) Briefly, after a short rest period, 300 μl of whole blood was pipetted into a cup pre-warmed at 37° C. Suspended cells were subsequently added to whole blood (5×10exp5 cells if no specification). Twenty μl of trigger reagent containing tissue factor (TF) (Innovin, Siemens, Marburg, Germany. Final dilution 1:17000/0.35 pM) diluted in Owren buffer (Siemens, Marburg, Germany) was then added to the cell-blood mixture followed by the necessary addition of 20 μl of 0.2 M CaCl2. After calcium addition, measurements started automatically. The procoagulant activity (PCA) of cells was also determined without addition of Innovin.
# For modulation of PCA assays, cells were suspended in albumin 5% with or without non-fractionated heparin (Heparin Leo®, Leo). […] Dose extrapolation was based on circulating blood volume according to weight (70 ml/kg).
# hALPCs = assay: Thromboelastometry (ROTEM) clotting time: modulation of procoagulant activity (PCA) of hALPCs in whole blood; format: cell-based, human; settings: for Clotting time (CT) of whole blood with hALPCs in presence of anticoagulant drug: ROTEM, 300 μl citrated whole blood, 5×10exp5 hALPCs, added TF, heparin 10 U/mL in cell suspension, hirudin 5.7 μg/ml; for Control of hALPCs PCA by thrombin inhibitor, increased dose (2× or 5×): FIGS. 14 and 15, dose 2× or 5×
# Method: as §1
# as §2, with “Innovin. To ascertain the role of TF in this coagulation model, cells were pre-incubated at room temperature for 10 minutes with either 0.2 mg/mL mAb anti-human TF IgG1 (American Diagnostica) or 0.2 mg/mL mAb mouse IgG1 (clone11711.11; RnD Systems, Abingdon, United Kingdom) before extensive washing in albumin 5% and thromboelastometry assay.” for “Innovin.”
# For modulation of PCA assays, cells were suspended in albumin 5% with or without non-fractionated heparin (Heparin Leo®, Leo). The following were then added to blood or plasma: rivaroxaban (Xarelto®, Bayer Schering) at a concentration of 1 μg/ml following published data (Samama et al. (2010), Thromb Haemost, 103(4):815-825), hirudin (Refludan®, Celgene Europe Limited) at a concentration of 5.7 μg/ml (clinical dose extrapolation 0.4 mg/kg), bivalirudin (Angiox®, The Medicines Company) at a concentration of 10.7 μg/ml (clinical dose extrapolation 0.75 mg/kg). Dose extrapolation was based on circulating blood volume according to weight (70 ml/kg).
# citrated whole blood = assay: Thromboelastometry (ROTEM) of control blood in absence of cells with anticoagulant drug; parameters: species or system human; settings: no cells
# Method: as §1
# as §2, with “Innovin. […]” for “Innovin.”
# hepatocytes = assay: Thromboelastometry (ROTEM): modulation of PCA of hepatocytes in whole blood; format: cell-based, human
# Method: as §1
# as §2, with “Innovin. […]” for “Innovin.”
Compound,Modulation of PCA of cells by concomitant use of the direct factor Xa inhibitor with a direct thrombin inhibitor (hirudin or bivalirudin) (cells with PCA),other results
CC(=N)N1CC[C@H](Oc2ccc([C@H](Cc3ccc4ccc(C(=N)N)cc4c3)C(=O)O)cc2)C1 [DX9065a],able to modulate PCA,
C[C@@H](C(=O)N1CCOCC1)N1CC[C@H](NS(=O)(=O)/C=C/c2ccc(Cl)s2)C1=O [GW813893],able to modulate PCA,
N=C(N)N1CCc2ccc(OCC3(C(=O)O)CCN(c4ccncc4)CC3)cc2C1 [JTV-803],able to modulate PCA,
CC(=N)N1CCC(c2ccc(NC(=O)CN(Cc3cccc(OCC(=O)O)c3)c3cccc(C(=N)N)c3)cc2)CC1 [KFA-144],able to modulate PCA,
CN1CCC(N2CCN(C(=O)[C@H](NC(=O)c3ccc4cc[nH]c4c3)c3ccccc3)CC2)CC1 [LY517717],able to modulate PCA,
COc1ccccc1N1CCN(C(=O)CNC(=O)C(Nc2cccc(C(=N)N)c2)c2ccccc2O[C@@H]2O[C@H](CO)[C@@H](O)[C@H](O)[C@H]2O)CC1 (stereo partly shown) [MCM-09],able to modulate PCA,
O=C1CN(S(=O)(=O)/C=C/c2ccc(Cl)s2)CCN1Cc1cc2cnccc2[nH]1 [RPR-209685],able to modulate PCA,
CC(=N)N1CCC(Oc2ccc(N(Cc3ccc4ccc(C(=N)N)cc4c3)S(=O)(=O)CC(=O)O)cc2)CC1 [YM-60828],able to modulate PCA,
"COc1ccc(-n2nc(C(N)=O)c3c2C(=O)N(c2ccc(N4CCCCC4=O)cc2)CC3)cc1 [apixaban, 1-(4-methoxyphenyl)-7-oxo-6-[4-(2-oxopiperidin-1-yl)phenyl]-4,5-dihydropyrazolo[5,4-c]pyridine-3-carboxamide]",able to modulate PCA,
"COc1ccc(NC(=O)c2ccc(C(=N)N(C)C)cc2)c(C(=O)Nc2ccc(Cl)cn2)c1 [betrixaban, N-(5-chloropyridin-2-yl)-2-([4-(N,N-dimethylcarbamimidoyl)benzoyl]amino)-5-methoxybenzamide]",able to modulate PCA,
COc1ccc(C(=O)Nc2cccc(O)c2NC(=O)c2ccc(N3CCCN(C)CC3)cc2)cc1 [darexaban],able to modulate PCA,
CO[C@H]1C[C@@H](C(=O)Nc2ccc(-n3ccccc3=O)cc2F)N(C(=O)Nc2ccc(Cl)cc2)C1 [eribaxaban],able to modulate PCA,
"CO[C@H]1O[C@H](COS(=O)(=O)O)[C@@H](O[C@@H]2O[C@@H](C(=O)O)[C@@H](O[C@H]3O[C@H](COS(=O)(=O)O)[C@@H](O[C@@H]4O[C@H](C(=O)O)[C@@H](O[C@H]5O[C@H](COS(=O)(=O)O)[C@@H](O)[C@H](O)[C@H]5NS(=O)(=O)O)[C@H](O)[C@H]4O)[C@H](OS(=O)(=O)O)[C@H]3NS(=O)(=O)O)[C@H](O)[C@H]2OS(=O)(=O)O)[C@H](O)[C@H]1NS(=O)(=O)O [fondaparinux, 2-deoxy-6-O-sulfo-2-(sulfoamino)-α-D-glucopyranosyl-(1→4)-O-β-D-glucopyranuronosyl-(1→4)-O-2-deoxy-3,6-di-O-sulfo-2-(sulfoamino)-α-D-glucopyranosyl-(1→4)-O-2-O-sulfo-α-L-idopyranouronosyl-(1→4)-O-methyl-2-deoxy-6-O-sulfo-2-(sulfoamino)-α-D-glucopyranoside, decasodium salt]",,Clotting time (CT) of whole blood with hALPCs in presence of anticoagulant drug (hALPCs; bivalirudin 10.7 μg/ml): 209.7 ± 149.7 s
O=C([C@H](O)CS(=O)(=O)c1ccc2cc(Cl)ccc2c1)N1CCC(N2CCCNC2=O)CC1 [letaxaban],able to modulate PCA,
CN(C)Cc1nccn1-c1ccc(NC(=O)c2cc(C(F)(F)F)nn2-c2ccc3onc(N)c3c2)c(F)c1 [razaxaban],able to modulate PCA,
"O=C(NC[C@H]1CN(c2ccc(N3CCOCC3=O)cc2)C(=O)O1)c1ccc(Cl)s1 [rivaroxaban, (S)-5-chloro-N-{[2-oxo-3-[4-(3-oxomorpholin-4-yl)phenyl]oxazolidin-5-yl]methyl}thiophene-2-carboxamide]",,"Modulation of hALPCs PCA (in words) (hALPCs; ROTEM whole blood, rivaroxaban 1 μg/ml, bivalirudin 10.7 μg/ml, heparin 10 U/mL): ineffective"
antistasin,able to modulate PCA,
bivalirudin,,"CT of control blood (in absence of cells) (citrated whole blood; bivalirudin 10.7 μg/ml, unit not printed at the place (other CT in sec)): 1075.0±107.2; Control of hALPCs PCA by thrombin inhibitor, increased dose (2× or 5×) (hALPCs; ROTEM whole blood): only a partial control; Clotting time (CT) of whole blood with hALPCs in presence of anticoagulant drug (hALPCs; bivalirudin 10.7 μg/ml): 380.8 ± 114.7 s; Control of hepatocytes PCA (in words) (hepatocytes; ROTEM whole blood, FIG. 6D): controlled"
hirudin,,"Coagulation of blood in absence of cells (in words) (citrated whole blood; thromboelastometry stopped after 1800 sec): no measurable coagulation was observed; Control of hALPCs PCA by thrombin inhibitor, increased dose (2× or 5×) (hALPCs; ROTEM whole blood): only a partial control; Clotting time (CT) of whole blood with hALPCs in presence of anticoagulant drug (hALPCs; bivalirudin 10.7 μg/ml): 256.3 ± 11.8 s; Control of hepatocytes PCA (in words) (hepatocytes): controlled"
